Literature values in patent US20050163837A1, “Rosiglitazone formulations” (priority 2003, published 2005).

Assays:
[1] = test system: animal models of type 2 diabetes

SMILES: CN(CCOc1ccc(CC2SC(=O)NC2=O)cc1)c1ccccn1 (stereo not drawn) [Rosiglitazone, 5-[4-[2-(N-methyl-N-(2-pyridyl)amino)ethoxy]benzyl]thiazolidine-2,4-dione]
- induction of hypoglycemia or impaired glucose tolerance [1]: did not induce hypoglycemia or impaired glucose tolerance
- development of overt diabetes (mouse models of diabetes; mouse models): prevent the development of overt diabetes
- blood glucose levels and hyperinsulinemia (mouse models of diabetes; several mouse models of diabetes): reduce blood glucose levels and hyperinsulinemia
